From ChEMBL document CHEMBL1150448, “Dihydropyridines: a new class of angiotensin II antagonists” (Bioorg Med Chem Lett, 1994)

Key:
[1] = target: T1, Angiotensin II receptor (AT-1) type-1 (Rattus norvegicus, UniProt P29089+P25095); experiment: Binding affinity to Angiotensin II receptor, type 1 as displacement of 125I-Sar, Ile-AII from rat adrenal cortex membranes; format: cell membranes, Membrane
T1 sequence (P29089 whole entry): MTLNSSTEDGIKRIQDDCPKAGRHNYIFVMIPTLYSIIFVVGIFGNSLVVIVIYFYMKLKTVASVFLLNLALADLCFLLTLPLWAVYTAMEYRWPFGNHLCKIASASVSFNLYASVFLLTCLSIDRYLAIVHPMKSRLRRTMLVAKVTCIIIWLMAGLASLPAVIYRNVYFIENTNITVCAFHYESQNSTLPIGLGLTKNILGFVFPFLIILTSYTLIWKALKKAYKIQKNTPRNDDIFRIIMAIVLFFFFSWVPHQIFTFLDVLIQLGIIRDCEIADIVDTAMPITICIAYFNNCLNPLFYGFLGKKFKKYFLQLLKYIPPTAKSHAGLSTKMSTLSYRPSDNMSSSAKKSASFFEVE
T1 sequence (P25095 whole entry): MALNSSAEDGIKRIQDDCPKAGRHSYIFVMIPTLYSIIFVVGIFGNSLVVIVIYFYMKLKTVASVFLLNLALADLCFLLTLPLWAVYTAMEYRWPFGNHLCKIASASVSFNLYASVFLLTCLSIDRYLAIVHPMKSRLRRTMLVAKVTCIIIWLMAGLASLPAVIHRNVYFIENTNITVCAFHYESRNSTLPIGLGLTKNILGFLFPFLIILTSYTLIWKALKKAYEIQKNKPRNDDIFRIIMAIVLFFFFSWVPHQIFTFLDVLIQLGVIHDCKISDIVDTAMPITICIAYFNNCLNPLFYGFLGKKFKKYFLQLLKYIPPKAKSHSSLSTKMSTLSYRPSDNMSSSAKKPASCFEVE

[2] = Calcium channel blocking activity (CCB); format: functional
[3] = Compound was evaluated for inhibitory activity against PAF (platelet activating factor) induced platelet aggregation; format: functional
[4] = tested on: Rattus norvegicus; experiment: Dose required to produce 30 […] decrease in blood pressure that lasted for >6 hr.; format: functional

| Structure (SMILES) | IC50 [1] [nM] | IC50 [2] [nM] | IC50 [3] [nM] | Dose [4] [mg/kg] |
| --- | --- | --- | --- | --- |
| CCCCc1nc2cccnc2n1CCCCCCCO/C(O)=C1\C(C(C)C)=NC(C)=C(C(=O)Nc2cccnc2)C1c1ccccc1Cl (stereo unspecified) | 2000 |  |  |  |
| CCCCc1nc2cccnc2n1CCCCCCO/C(O)=C1\C(C(C)C)=NC(C)=C(C(=O)Nc2cccnc2)C1c1ccccc1Cl (stereo unspecified) | 100 |  |  |  |
| CCCCc1nc2cccnc2n1-c1ccc(CCO/C(O)=C2\C(C(C)C)=NC(C)=C(C(=O)Nc3cccnc3)C2c2ccccc2Cl)cc1 (stereo in doubt) | 600 | > 100000 | 30 |  |
| CCCCc1nc2cccnc2n1-c1ccc(CCO/C(O)=C2\C(C(C)C)=NC(C)=C(C(=O)Nc3cccnc3)C2c2ccccc2Cl)cc1 (stereo in doubt; 12) | 140 |  |  |  |
| CCCCc1nc2cccnc2n1-c1ccc(CCO/C(O)=C2\C(C(C)C)=NC(C)=C(C(=O)Nc3cccnc3)C2c2ccccc2Cl)cc1 (single isomer, unassigned; (+)) | 5300 |  |  |  |
| CCCCc1nc2cccnc2n1-c1ccc(CCO/C(O)=C2\C(C(C)C)=NC(C)=C(C(=O)Nc3cccnc3)C2c2ccccc2Cl)cc1 (single isomer, unassigned; (-)) | 130 |  |  | 60 |
| CCCCc1nc2cccnc2n1-c1ccc(CCO/C(O)=C2\C(C)=NC(C)=C(C(=O)Nc3ccccn3)C2c2ccccc2Cl)cc1 (stereo unspecified) | 60 | 360 | > 100000 |  |
| CCCCc1nc2cccnc2n1-c1ccc(CCO/C(O)=C2\C(C(C)C)=NC(C)=C(C(=O)Nc3ccccn3)C2c2ccccc2Cl)cc1 (stereo unspecified) | 120 | > 100000 | > 100000 |  |
| CCCCc1nc2cccnc2n1CCCCCO/C(O)=C1\C(C(C)C)=NC(C)=C(C(=O)Nc2cccnc2)C1c1ccccc1Cl (stereo unspecified) | 200 |  |  |  |
